Test results as given in paper PMC5882164, “A novel calcimimetic agent, evocalcet (MT-4580/KHK7580), suppresses the parathyroid cell function with little effect on the gastrointestinal tract or CYP isozymes in vivo and in vitro” (PLoS ONE, 2018).
Several values for one entry are separate records, joined by “and”; a condition that tells them apart may be missing. Equal entries are not always repeated.

Test system: serum calcium
Assay: 5/6 nephrectomized rats study: serum calcium level
Assay type: in vivo, rat
Conditions: 5/6 Nx rats; for Serum Ca levels before (day 0) and 24 h after evocalcet administration, Mean / Serum Ca levels after the first administration, Mean: group mean; for Serum Ca levels before (day 0) and 24 h after evocalcet administration / Serum Ca levels after the first administration: individual rats
Protocol: Rats were 5/6 nephrectomized in two steps. Under anesthesia (pentobarbital, 50 mg/kg; intraperitoneally) and analgesia (lidocaine; topically), two-thirds of the left kidney was removed, and then the right kidney was removed after a seven-day interval. Seven days after the completion of 5/6 nephrectomy, the FR-2 diet was changed to a high-phosphate diet, containing 0.6% calcium and 0.9% phosphate (Oriental Yeast Co., Ltd., Tokyo, Japan). Approximately 2 weeks after the initiation of the high-phosphate diet, the 5/6 Nx rats were divided into five groups (n = 12/group) matched in terms of their body weight as well as their blood urea nitrogen (BUN) and serum PTH and calcium levels.
In the single-dose study, blood samples were collected from the tail vein before and at 0.5, 2, 4, 8, 24, 48, and 72 h after the oral administration of vehicle (0.5% methyl cellulose solution) or evocalcet (0.03, 0.1, 0.3, or 1 mg/kg). In the repeated-dose study, vehicle or evocalcet was orally administered to the respective groups once daily for 14 days. Blood samples were obtained from the tail vein before the first administration and after the seventh and last administrations.
The serum PTH level was measured using a Rat Intact PTH ELISA kit (Immutopics, Inc., San Clemente, CA). The serum calcium, phosphate and BUN levels were measured using an auto analyzer (Hitachi High-Technologies Corporation., Tokyo, Japan) or the following test kits: the Calcium E-test WAKO, the Phospha C-test WAKO, or the Blood Urea nitrogen B-test WAKO (Wako Pure Chemical Industries, Ltd., Osaka, Japan).

C[C@@H](N[C@H]1CCN(c2ccc(CC(=O)O)cc2)C1)c1cccc2ccccc12 [evocalcet]
Serum Ca levels before (day 0) and 24 h after evocalcet administration, Mean (0.03 mg/kg, day 0 (Before)): 7.862
Serum Ca levels before (day 0) and 24 h after evocalcet administration (0.03 mg/kg, day 0 (Before), 0.03 mg/kg): 6.475 and 7.379 and 7.410 and 6.746 and 6.842 and 8.689 and 8.077 and 8.881 and 8.577 and 8.645 and 8.453 and 8.169
Serum Ca levels before (day 0) and 24 h after evocalcet administration, Mean (0.03 mg/kg, day 7 (24 h)): 6.700
Serum Ca levels before (day 0) and 24 h after evocalcet administration (0.03 mg/kg, day 7 (24 h), 0.03 mg/kg): 4.756 and 6.463 and 7.204 and 6.649 and 7.424 and 7.568 and 6.316 and 6.947 and 6.611 and 7.154 and 6.338 and 6.972
Serum Ca levels before (day 0) and 24 h after evocalcet administration, Mean (0.03 mg/kg, day 14 (24 h)): 7.524
Serum Ca levels before (day 0) and 24 h after evocalcet administration (0.03 mg/kg, day 14 (24 h), 0.03 mg/kg): 6.629 and 7.365 and 7.620 and 6.148 and 7.312 and 8.717 and 7.991 and 8.107 and 7.192 and 7.532 and 7.865 and 7.809
Serum Ca levels after the first administration, Mean (0.03 mg/kg, time 0 h): 7.862
Serum Ca levels after the first administration (0.03 mg/kg, time 0 h): 6.475 and 7.379 and 7.410 and 6.746 and 6.842 and 8.689
Serum Ca levels after the first administration, Mean (0.03 mg/kg, time 0.5 h): 7.066
Serum Ca levels after the first administration (0.03 mg/kg, time 0.5 h): 5.843 and 6.570 and 6.547 and 6.666 and 6.639 and 7.943
Serum Ca levels after the first administration, Mean (0.03 mg/kg, time 2 h): 7.130
Serum Ca levels after the first administration (0.03 mg/kg, time 2 h): 6.221 and 6.752 and 6.943 and 6.746 and 6.851 and 7.851
Serum Ca levels after the first administration, Mean (0.03 mg/kg, time 4 h): 7.511
Serum Ca levels after the first administration (0.03 mg/kg, time 4 h): 6.129 and 7.183 and 6.895 and 7.539 and 6.860 and 8.183
Serum Ca levels after the first administration, Mean (0.03 mg/kg, time 8 h): 7.889
Serum Ca levels after the first administration (0.03 mg/kg, time 8 h): 7.265 and 7.625 and 7.368 and 8.097 and 7.474 and 8.633
Serum Ca levels after the first administration, Mean (0.03 mg/kg, time 24 h): 7.657
Serum Ca levels after the first administration (0.03 mg/kg, time 24 h): 7.337 and 7.644 and 7.429 and 7.568 and 7.040 and 8.620
Serum Ca levels before (day 0) and 24 h after evocalcet administration, Mean (0.1 mg/kg, day 0 (Before)): 7.709
Serum Ca levels before (day 0) and 24 h after evocalcet administration (0.1 mg/kg, day 0 (Before), 0.1 mg/kg): 7.331 and 8.275 and 7.642 and 7.659 and 8.173 and 8.364 and 6.513 and 7.933 and 8.070 and 7.690 and 6.674 and 8.180
Serum Ca levels before (day 0) and 24 h after evocalcet administration, Mean (0.1 mg/kg, day 7 (24 h)): 7.317
Serum Ca levels before (day 0) and 24 h after evocalcet administration (0.1 mg/kg, day 7 (24 h), 0.1 mg/kg): 7.427 and 8.099 and 7.493 and 7.242 and 7.637 and 7.025 and 6.448 and 7.138 and 7.123 and 6.680 and 7.302 and 8.184
Serum Ca levels before (day 0) and 24 h after evocalcet administration, Mean (0.1 mg/kg, day 14 (24 h)): 7.011
Serum Ca levels before (day 0) and 24 h after evocalcet administration (0.1 mg/kg, day 14 (24 h), 0.1 mg/kg): 7.048 and 7.642 and 6.969 and 7.601 and 6.617 and 6.853 and 5.928 and 7.145 and 7.117 and 6.576 and 7.375 and 7.261
Serum Ca levels after the first administration, Mean (0.1 mg/kg, time 0 h): 7.709
Serum Ca levels after the first administration (0.1 mg/kg, time 0 h): 7.331 and 8.275 and 7.642 and 7.659 and 8.173 and 8.364 and 6.513 and 7.933 and 8.070 and 7.690 and 6.674
Serum Ca levels after the first administration, Mean (0.1 mg/kg, time 0.5 h): 6.755
Serum Ca levels after the first administration (0.1 mg/kg, time 0.5 h): 6.761 and 6.580 and 6.840 and 7.344 and 6.409 and 6.926 and 6.241 and 6.919 and 6.445 and 6.968 and 6.307
Serum Ca levels after the first administration, Mean (0.1 mg/kg, time 2 h): 6.694
Serum Ca levels after the first administration (0.1 mg/kg, time 2 h): 6.582 and 6.412 and 6.604 and 7.150 and 6.977 and 6.857 and 5.795 and 6.903 and 7.147 and 6.715 and 6.267
Serum Ca levels after the first administration, Mean (0.1 mg/kg, time 4 h): 7.099
Serum Ca levels after the first administration (0.1 mg/kg, time 4 h): 7.060 and 7.085 and 7.028 and 7.482 and 7.364 and 7.406 and 5.948 and 7.326 and 7.361 and 7.050 and 6.742
